Assay results from patent publication US5616606A, “Oligopeptide antiretroviral agents” (priority 1995, dated 1997).
Values joined by “and” are separate entries in the source; they are usually repeats but may differ in a detail not shown here. Equal entries are not always repeated. “Also recorded” adds a separate entry of the source. Where two headings read alike, the source gives them in different places.

Experiments:
HBV = assay: inhibition of HBV DNA replication in 2.2.15 cell cultures; format: cell-based; conditions: for INT[…] DNA MONO.: 24 hours following the 9th day of treatment; for INT[…] DNA MONO. / HBV VIRION DNA DAY 0 / HBV VIRION DNA DAY 6 / HBV VIRION DNA DAY 9: single well
2.2.15 cells = assay: toxicity analysis, neutral red dye uptake in 2.2.15 cells; conditions: triplicate, ± standard deviation
calf thymus DNA = assay: ethidium displacement assay, drug-DNA binding constant, calf thymus DNA; conditions: relative to ethidium 10^7 M^-1, average of repeat measurements
HIV-1 = conditions: for Anti-HIV-1 Activity (National Cancer Institute Designation): inactive, moderate or active; for INFECTED RESPONSE % of Control: Table IX
[1] = solubility in DMSO, MeOH, H2O; format: physicochemical
[2] = test system: T4 lymphocytes (CEM cell line); assay: NCI anti-HIV screen, toxicity control in uninfected cells; format: cell-based; conditions: Table IX
poly(dA-dT) = assay: ethidium displacement assay, poly(dA-dT); conditions: relative to ethidium 9.5 × 10^6 M^-1, average of repeat measurements
[3] = 50 μM, zero = undetectable, cutoff 0.1 pg/ml, dihydrochloride
[4] = 10 μM, listed as Compound 14, dihydrochloride
[5] = 50 μM, listed as Compound 14, dihydrochloride

Cl.Cl.Cn1cc(NC(=O)c2cc(NC(=O)CC(=O)Nc3cc(C(=O)Nc4cc(C(=O)NCCC(N)=O)n(C)c4)n(C)c3)cn2C)cc1C(=O)NCCC(N)=O [Compound 4, N,N'-Di(1-methyl-2-[1-methyl-2-carboxamido(3-proprionamide)-4-pyrrole]-4-pyrrolyl)malonamide dihydrochloride]
INT[…] DNA MONO. (HBV; 10 μM, dihydrochloride): 2.3 pg/μg CELL DNA and 2.8 pg/μg CELL DNA and 2.1 pg/μg CELL DNA
HBV VIRION DNA DAY 0 (HBV; 10 μM, dihydrochloride): 77 pg/ml CULTURE MEDIUM and 61 pg/ml CULTURE MEDIUM and 64 pg/ml CULTURE MEDIUM
HBV VIRION DNA DAY 6 (HBV; 10 μM, dihydrochloride): 52 pg/ml CULTURE MEDIUM and 55 pg/ml CULTURE MEDIUM and 96 pg/ml CULTURE MEDIUM and 59 pg/ml CULTURE MEDIUM
HBV VIRION DNA DAY 9 (HBV; 10 μM, dihydrochloride): 73 pg/ml CULTURE MEDIUM and 81 pg/ml CULTURE MEDIUM and 62 pg/ml CULTURE MEDIUM and 50 pg/ml CULTURE MEDIUM
INT[…] DNA MONO. (HBV; 50 μM, dihydrochloride): 2.5 pg/μg CELL DNA and 2.8 pg/μg CELL DNA and 2.1 pg/μg CELL DNA and 2.4 pg/μg CELL DNA
HBV VIRION DNA DAY 0 (HBV; 50 μM, dihydrochloride): 63 pg/ml CULTURE MEDIUM and 66 pg/ml CULTURE MEDIUM and 78 pg/ml CULTURE MEDIUM and 74 pg/ml CULTURE MEDIUM
HBV VIRION DNA DAY 6 (HBV; 50 μM, dihydrochloride): 86 pg/ml CULTURE MEDIUM and 70 pg/ml CULTURE MEDIUM and 64 pg/ml CULTURE MEDIUM and 88 pg/ml CULTURE MEDIUM
HBV VIRION DNA DAY 9 (HBV; [3]): 97 pg/ml CULTURE MEDIUM and 65 pg/ml CULTURE MEDIUM and 61 pg/ml CULTURE MEDIUM and 85 pg/ml CULTURE MEDIUM
NEUTRAL RED DYE UPTAKE (2.2.15 cells; 10 μg/ml): 99 ± 1 % OF CONTROL
NEUTRAL RED DYE UPTAKE (2.2.15 cells; 100 μg/ml): 100 ± 1 % OF CONTROL
NEUTRAL RED DYE UPTAKE (2.2.15 cells; 300 μg/ml): 99 ± 1 % OF CONTROL
DNA Binding Constant (calf thymus DNA): 3.6e+07 M⁻¹

Cl.Cl.Cn1cc(NC(=O)c2cc(NC(=O)CCC(=O)Nc3cc(C(=O)Nc4cc(C(=O)NCCC(=N)N)n(C)c4)n(C)c3)cn2C)cc1C(=O)NCCC(=N)N [Compound 5]
Anti-HIV-1 Activity (National Cancer Institute Designation) (HIV-1): Moderate
NEUTRAL RED DYE UPTAKE (2.2.15 cells; 10 μg/ml): 99 ± 2 % OF CONTROL
NEUTRAL RED DYE UPTAKE (2.2.15 cells; 30 μg/ml): 100 ± 1 % OF CONTROL
DNA Binding Constant (calf thymus DNA): 7.2e+07 M⁻¹

Cl.Cl.Cn1cc(NC(=O)c2cc(NC(=O)CCCCC(=O)Nc3cc(C(=O)Nc4cc(C(=O)NCCC(=N)N)n(C)c4)n(C)c3)cn2C)cc1C(=O)NCCC(=N)N [Compound 7, N,N'-Di(1-methyl-2-[1-methyl-2-carboxamido(3-proprionamidine)-4-pyrrole]-4-pyrrolyl) adipamide dihydrochloride]
INT[…] DNA MONO. (HBV; 10 μM, dihydrochloride): 2.1 pg/μg CELL DNA and 2.3 pg/μg CELL DNA and 2.2 pg/μg CELL DNA and 2.6 pg/μg CELL DNA
HBV VIRION DNA DAY 0 (HBV; 10 μM, dihydrochloride): 75 pg/ml CULTURE MEDIUM and 92 pg/ml CULTURE MEDIUM and 60 pg/ml CULTURE MEDIUM and 55 pg/ml CULTURE MEDIUM
HBV VIRION DNA DAY 6 (HBV; 10 μM, dihydrochloride): 68 pg/ml CULTURE MEDIUM and 67 pg/ml CULTURE MEDIUM and 57 pg/ml CULTURE MEDIUM and 50 pg/ml CULTURE MEDIUM
HBV VIRION DNA DAY 9 (HBV; 10 μM, dihydrochloride): 56 pg/ml CULTURE MEDIUM and 57 pg/ml CULTURE MEDIUM and 87 pg/ml CULTURE MEDIUM and 58 pg/ml CULTURE MEDIUM
INT[…] DNA MONO. (HBV; 50 μM, dihydrochloride): 2.7 pg/μg CELL DNA and 2.5 pg/μg CELL DNA and 2.3 pg/μg CELL DNA
HBV VIRION DNA DAY 6 (HBV; 50 μM, dihydrochloride): 67 pg/ml CULTURE MEDIUM and 75 pg/ml CULTURE MEDIUM and 83 pg/ml CULTURE MEDIUM and 69 pg/ml CULTURE MEDIUM
HBV VIRION DNA DAY 9 (HBV; [3]): 63 pg/ml CULTURE MEDIUM and 68 pg/ml CULTURE MEDIUM and 77 pg/ml CULTURE MEDIUM and 66 pg/ml CULTURE MEDIUM
Solubility in H2O ([1]; H2O): good
NEUTRAL RED DYE UPTAKE (2.2.15 cells; 30 μg/ml): 102 ± 1 % OF CONTROL
NEUTRAL RED DYE UPTAKE (2.2.15 cells; 300 μg/ml): 98 ± 2 % OF CONTROL

Cl.Cl.Cn1cc(NC(=O)c2cc(NC(=O)/C=C\C(=O)Nc3cc(C(=O)Nc4cc(C(=O)NCCC(=N)N)n(C)c4)n(C)c3)cn2C)cc1C(=O)NCCC(=N)N [Compound 22b]
[…] % of Control ([2]; dose 3.02 × 10^-4 Molar): -0.86 % of Control
[…] % of Control ([2]; dose 3.03 × 10^-5 Molar): 112.05 % of Control
[…] % of Control ([2]; dose 3.03 × 10^-6 Molar): 103.19 % of Control
[…] % of Control ([2]; dose 3.04 × 10^-7 Molar): 100.16 % of Control
[…] % of Control ([2]; dose 9.54 × 10^-5 Molar): 94.16 % of Control
[…] % of Control ([2]; dose 9.57 × 10^-4 Molar): 5.40 % of Control
[…] % of Control ([2]; dose 9.59 × 10^-6 Molar): 112.20 % of Control
[…] % of Control ([2]; dose 9.61 × 10^-7 Molar): 100.02 % of Control
INT[…] DNA MONO. (HBV; [4]): 2.5 pg/μg CELL DNA and 2.2 pg/μg CELL DNA and 2.3 pg/μg CELL DNA and 2.1 pg/μg CELL DNA
HBV VIRION DNA DAY 0 (HBV; [4]): 50 pg/ml CULTURE MEDIUM and 61 pg/ml CULTURE MEDIUM and 55 pg/ml CULTURE MEDIUM and 67 pg/ml CULTURE MEDIUM
HBV VIRION DNA DAY 6 (HBV; [4]): 110 pg/ml CULTURE MEDIUM and 120 pg/ml CULTURE MEDIUM and 77 pg/ml CULTURE MEDIUM and 87 pg/ml CULTURE MEDIUM
HBV VIRION DNA DAY 9 (HBV; [4]): 21 pg/ml CULTURE MEDIUM and 25 pg/ml CULTURE MEDIUM and 22 pg/ml CULTURE MEDIUM and 20 pg/ml CULTURE MEDIUM
INT[…] DNA MONO. (HBV; [5]): 1.9 pg/μg CELL DNA and 2.0 pg/μg CELL DNA and 2.3 pg/μg CELL DNA
HBV VIRION DNA DAY 0 (HBV; [5]): 71 pg/ml CULTURE MEDIUM and 89 pg/ml CULTURE MEDIUM and 51 pg/ml CULTURE MEDIUM and 92 pg/ml CULTURE MEDIUM
HBV VIRION DNA DAY 6 (HBV; [5]): 26 pg/ml CULTURE MEDIUM and 27 pg/ml CULTURE MEDIUM and 36 pg/ml CULTURE MEDIUM and 37 pg/ml CULTURE MEDIUM
HBV VIRION DNA DAY 9 (HBV; 50 μM, zero = undetectable, cutoff 0.1 pg/ml): 1 pg/ml CULTURE MEDIUM
effect on HBV replication (in words) (HBV; tested at 50 and 10 μM, compared with 2',3'-ddC, listed as 14, dihydrochloride): just slightly less than that observed with the control; also recorded: potent inhibitors
Solubility in DMSO ([1]; DMSO): good
Solubility in MeOH ([1]; MeOH): good
INFECTED RESPONSE % of Control (HIV-1; dose 3.02 × 10^-4 Molar): -0.29 % of Control
INFECTED RESPONSE % of Control (HIV-1; dose 3.03 × 10^-5 Molar): 114.32 % of Control
INFECTED RESPONSE % of Control (HIV-1; dose 3.03 × 10^-6 Molar): 44.03 % of Control
INFECTED RESPONSE % of Control (HIV-1; dose 3.04 × 10^-7 Molar): 28.75 % of Control
INFECTED RESPONSE % of Control (HIV-1; dose 9.54 × 10^-5 Molar): 84.02 % of Control
INFECTED RESPONSE % of Control (HIV-1; dose 9.57 × 10^-4 Molar): -0.14 % of Control
INFECTED RESPONSE % of Control (HIV-1; dose 9.59 × 10^-6 Molar): 115.19 % of Control
INFECTED RESPONSE % of Control (HIV-1; dose 9.61 × 10^-7 Molar): 32.14 % of Control
Anti-HIV-1 Activity (National Cancer Institute Designation) (HIV-1): Active
Kapp (poly(dA-dT)): 3.8e+07 M⁻¹
NEUTRAL RED DYE UPTAKE (2.2.15 cells; 10 μg/ml): 99 ± 2 % OF CONTROL
NEUTRAL RED DYE UPTAKE (2.2.15 cells; 30 μg/ml): 98 ± 1 % OF CONTROL
NEUTRAL RED DYE UPTAKE (2.2.15 cells; 100 μg/ml): 99 ± 1 % OF CONTROL
NEUTRAL RED DYE UPTAKE (2.2.15 cells; 300 μg/ml): 85 ± 2 % OF CONTROL
